The values that follow are results of earlier work, collected in US20170343557A1, “USE OF 5-METHOXYTRYPTOPHAN AS DIAGNOSTIC AGENT OF INFLAMMATORY DISEASES” (NATIONAL HEALTH RESEARCH INSTITUTES, priority 2014, published 2017).

Data set [1] deals with cancer metastasis in a xenograft model.
Data set [2] concerns cancer cell migration and invasion.
In data set [3] the test system is COX-2 expression in fibroblasts and cancer cells.

Take `COc1ccc2[nH]cc(C[C@H](N)C(=O)O)c2c1` [5-MTP, 5-methoxytryptophan]: in data set [1], the Cancer metastasis result is “reduces”. In addition, in data set [2], the “Cancer cell migration and invasion” value is “reduces”. The “Proinflammatory mediator-induced COX-2 expression” value in data set [3] is reported as “inhibits”.
